From article PMC11904948, “Peptide‐Drug Conjugate for Therapeutic Reprogramming of Tumor‐Associated Macrophages in Breast Cancer” (Advanced Science, 2025)

Assays:
[1] = test system: Balb/c BMDM; assay: Flow cytometry of marker expression on Balb/c BMDM; type: cell-based, mouse; details: 10 µM 4 h, 48 h after treatment, n = 4
Procedure: Figure 6 MACTIDE‐V promotes a YAP‐ mediated anti‐ tumoral switch in bone marrow‐derived macrophages. Day 5 BMDM were incubated for 4 h with 10 µM conjugates, washed, and followed‐up in media. A) YAP Immunofluorescence (shown in red) was analyzed 3 h after treatment and B) phagocytosis of fluorescent E. coli particles at 48 h follow‐up. C) Flow cytometry on BMDM 48 h after treatment. Left panel, GeoMean of MHC II, CD206, CD80, and PD‐L1 in Balb/c BMDM. Median ± interquartile range. Repeated measures one‐way ANOVA with multiple comparisons, for n = 4 independent experiments. ^* p ≤ 0.05, ^** p ≤ 0.01. D) Heatmap of the mRNA expression of genes involved in the functional activation of BMDM, YAP signaling, and adhesion, measured by real‐time PCR 48 h after treatment in BALB/c BMDM. n = 3 independent experiments. […]
At the mRNA level, MACTIDE‐V induced a clear increase in Il‐12, Chil3 and Nos2 genes, (Figure 6D, left panel). […] To further investigate whether the effect of MACTIDE‐V was mediated by YAP targeting, we analyzed a set of 7 YAP‐regulated genes (Figure 6D, right panel). […]

[2] = test system: primary human macrophages; assay: Cytokine secretion by primary human macrophages (bead-based multiplex panel); type: cell-based; details: 10 µM 4 h, washed, 48 h, supernatant, n = 3
Procedure: To investigate potential off‐target risk in vivo caused by MACTIDE‐V we analyzed the serum levels of the hepatic enzyme alanine aminotransferase (ALAT) following a 3 mg Kg^−1 dose of MACTIDE‐V in healthy mice. If MACTIDE‐V causes off‐target inflammation, it would likely occur in the liver (the organ that expresses the MACTIDE receptor) and would reflect on ALAT levels (liver inflammation produces a > 2‐fold increase in ALAT^[ [35] ^]).
Figure S9. Quantification of cytokines from the supernatant of primary human macrophages treated with MACTIDE-V. Primary human macrophages (obtained from monocytes derived from human blood buffy coat) were incubated with 10µM MACTIDE-V for 4 h, followed by 2 washes with media, the cells were then placed in new media and cultured for an additional 48 h. Then, the supernatant was collected and analyzed for cytokine expression using a bead-based multiplexed cytokine panel assay (Biolegend, cat# 740502) following the manufacturer’s instructions. Anova Fisher LSD (n=3).

Vert‐Ahx‐G(CTKSIPPIC)SPGAK‐OH (disulfide) [MACTIDE‐V]
expression of CD80 (GeoMean) [1]: no significant changes
expression of CD206 (GeoMean) [1]: no significant changes
expression of MHC II (GeoMean) ([1]; versus CtrlPep‐V and untreated): upregulated
expression of PD‐L1 (GeoMean) ([1]; versus CtrlPep‐V and untreated): upregulated
secretion of IFN‐γ [2]: did not significantly increase
secretion of IL‐1RA [2]: significantly decreased
secretion of IL‐12 [2]: significantly increased
secretion of IL‐23 [2]: significantly increased
secretion of TNF‐α [2]: did not significantly increase
